The compounds below were run against ATR kinase (full-length ATR) (Homo sapiens (Human), UniProt Q13535) (assay: ATR inhibition assay (radioactive-phosphate incorporation)). Settings: not given.
Sequence of ATR kinase (full-length ATR) (Q13535 whole entry): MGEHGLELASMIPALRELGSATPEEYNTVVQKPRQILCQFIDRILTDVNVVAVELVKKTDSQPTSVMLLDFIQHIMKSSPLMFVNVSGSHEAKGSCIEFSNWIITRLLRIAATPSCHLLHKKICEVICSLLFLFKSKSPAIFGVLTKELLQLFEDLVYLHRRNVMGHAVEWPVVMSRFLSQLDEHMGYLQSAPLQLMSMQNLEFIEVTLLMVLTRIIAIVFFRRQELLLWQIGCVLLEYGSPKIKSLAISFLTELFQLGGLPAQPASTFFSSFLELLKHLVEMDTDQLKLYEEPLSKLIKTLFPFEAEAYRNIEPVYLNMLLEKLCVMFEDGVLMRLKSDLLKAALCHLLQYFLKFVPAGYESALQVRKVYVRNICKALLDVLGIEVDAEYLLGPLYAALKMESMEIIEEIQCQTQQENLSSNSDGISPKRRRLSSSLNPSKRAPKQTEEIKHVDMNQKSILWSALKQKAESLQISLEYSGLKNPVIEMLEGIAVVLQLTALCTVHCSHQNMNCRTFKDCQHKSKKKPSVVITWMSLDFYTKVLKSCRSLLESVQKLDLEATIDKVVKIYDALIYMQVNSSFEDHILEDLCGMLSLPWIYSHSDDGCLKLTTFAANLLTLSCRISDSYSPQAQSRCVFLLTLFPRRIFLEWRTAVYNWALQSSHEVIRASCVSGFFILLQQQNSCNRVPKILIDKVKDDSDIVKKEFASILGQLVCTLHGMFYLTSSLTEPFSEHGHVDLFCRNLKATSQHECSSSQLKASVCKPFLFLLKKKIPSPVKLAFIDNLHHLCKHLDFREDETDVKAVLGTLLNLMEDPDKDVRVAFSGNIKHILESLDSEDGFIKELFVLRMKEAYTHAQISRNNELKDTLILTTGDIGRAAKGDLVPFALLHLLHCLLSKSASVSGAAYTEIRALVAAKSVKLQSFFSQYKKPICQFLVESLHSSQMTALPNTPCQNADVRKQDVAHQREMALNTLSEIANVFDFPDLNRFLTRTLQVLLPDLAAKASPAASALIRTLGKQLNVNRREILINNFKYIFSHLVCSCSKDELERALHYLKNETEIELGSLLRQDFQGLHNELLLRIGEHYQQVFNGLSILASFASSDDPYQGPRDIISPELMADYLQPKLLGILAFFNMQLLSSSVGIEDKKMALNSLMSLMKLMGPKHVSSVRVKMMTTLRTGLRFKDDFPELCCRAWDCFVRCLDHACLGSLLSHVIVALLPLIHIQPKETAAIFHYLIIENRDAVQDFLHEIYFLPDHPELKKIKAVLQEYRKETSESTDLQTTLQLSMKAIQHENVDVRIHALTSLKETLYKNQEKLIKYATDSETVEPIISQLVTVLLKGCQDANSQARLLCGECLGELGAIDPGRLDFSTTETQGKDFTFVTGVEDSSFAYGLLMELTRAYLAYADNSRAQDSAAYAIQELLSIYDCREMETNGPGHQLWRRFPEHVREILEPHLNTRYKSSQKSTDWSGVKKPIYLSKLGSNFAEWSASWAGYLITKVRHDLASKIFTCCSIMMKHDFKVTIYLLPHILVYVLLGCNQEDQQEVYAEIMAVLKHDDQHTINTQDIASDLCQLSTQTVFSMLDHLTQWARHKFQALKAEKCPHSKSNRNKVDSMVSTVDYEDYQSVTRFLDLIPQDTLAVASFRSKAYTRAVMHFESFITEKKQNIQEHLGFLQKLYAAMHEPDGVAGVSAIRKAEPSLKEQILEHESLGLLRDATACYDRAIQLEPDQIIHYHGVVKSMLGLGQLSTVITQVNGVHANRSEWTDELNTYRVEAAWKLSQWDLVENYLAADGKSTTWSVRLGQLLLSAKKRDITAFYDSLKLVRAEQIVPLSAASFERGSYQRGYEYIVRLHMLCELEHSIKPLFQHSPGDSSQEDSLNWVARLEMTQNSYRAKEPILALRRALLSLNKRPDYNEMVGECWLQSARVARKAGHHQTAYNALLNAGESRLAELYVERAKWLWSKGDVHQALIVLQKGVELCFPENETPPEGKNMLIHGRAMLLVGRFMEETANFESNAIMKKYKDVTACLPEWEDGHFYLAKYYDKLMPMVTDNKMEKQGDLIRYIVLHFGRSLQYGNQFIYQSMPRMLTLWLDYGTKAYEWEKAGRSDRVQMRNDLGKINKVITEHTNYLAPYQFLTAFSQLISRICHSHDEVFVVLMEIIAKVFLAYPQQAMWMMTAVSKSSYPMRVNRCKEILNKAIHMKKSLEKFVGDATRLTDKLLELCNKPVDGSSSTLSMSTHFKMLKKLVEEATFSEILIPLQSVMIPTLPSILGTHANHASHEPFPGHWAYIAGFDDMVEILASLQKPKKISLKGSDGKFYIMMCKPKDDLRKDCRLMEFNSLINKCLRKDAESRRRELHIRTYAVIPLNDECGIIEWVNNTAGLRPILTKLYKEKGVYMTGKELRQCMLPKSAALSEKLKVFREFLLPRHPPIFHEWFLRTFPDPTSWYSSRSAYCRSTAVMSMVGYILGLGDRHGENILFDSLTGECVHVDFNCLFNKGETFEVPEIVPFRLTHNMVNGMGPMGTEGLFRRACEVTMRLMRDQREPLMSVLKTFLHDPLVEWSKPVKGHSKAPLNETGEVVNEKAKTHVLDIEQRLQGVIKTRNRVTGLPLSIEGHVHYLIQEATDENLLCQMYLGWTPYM
Format: biochemical
Outline: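 Radiometric 33P incorporation by 5 nM full-length ATR into 800 μM target peptide with 10 μM [γ-33P]ATP, in 50 mM Tris/HCl pH 7.5, 10 mM MgCl2, 1 mM DTT, 7% DMSO, 25° C. Compound pre-incubated 10 minutes; reaction stopped after 24 hours, captured on phosphocellulose. Ki(app) from non-linear regression of initial rates.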
With `CN1CCC(Oc2c(Cl)cncc2NC(=O)c2c(N)nn3cc(Cl)cnc23)CC1` [I-O-46, 2-amino-6-chloro-N-(5-chloro-4-((1-methylpiperidin-4-yl)oxy)pyridin-3-yl)pyrazolo[1,5-a]pyrimidine-3-carboxamide] the Ki was 1000 to 5000 nM.
In the case of `CN1CCN(C(=O)C2CCCN(c3c(F)cncc3NC(=O)c3c(N)nn4cc(F)cnc34)C2)CC1` (stereo not drawn) [I-N-289, 2-amino-6-fluoro-N-(5-fluoro-4-(3-(4-methylpiperazine-1-carbonyl)piperidin-1-yl)pyridin-3-yl)pyrazolo[1,5-a]pyrimidine-3-carboxamide], the Ki is reported as 1000 to 5000 nM.

Same assay, conditions: Ki(app), 5 nM full-length ATR, 10 μM ATP, 25° C.
Work on `CN1CCN(C(=O)c2cnc(-c3ccncc3NC(=O)c3c(N)nn4cc(F)cnc34)c(Cl)c2)CC1` [I-C-46, 2-amino-N-(3-chloro-5-(4-methylpiperazine-1-carbonyl)-[2,4′-bipyridin]-3′-yl)-6-fluoropyrazolo[1,5-a]pyrimidine-3-carboxamide] yielded a Ki of 10 to 1000 nM.
Work on `CC1(O)CCN(c2ccncc2NC(=O)c2c(N)nn3cc(Cl)cnc23)CC1` [I-N-66, 2-amino-6-chloro-N-(4-(4-hydroxy-4-methylpiperidin-1-yl)pyridin-3-yl)pyrazolo[1,5-a]pyrimidine-3-carboxamide] yielded a Ki of 10 to 1000 nM.
`Nc1nn2cc(F)cnc2c1C(=O)Nc1cncc(F)c1N1CCC(C(=O)N2CCN3CC[C@H]2C3)CC1` [I-G-70, N-(4-(4-((5S)-1,4-diazabicyclo[3.2.1]octane-4-carbonyl)piperidin-1-yl)-5-fluoropyridin-3-yl)-2-amino-6-fluoropyrazolo[1,5-a]pyrimidine-3-carboxamide] gave a Ki of 10 to 1000 nM.
Compound `COCC1CN(c2ccncc2NC(=O)c2c(N)nn3cc(Cl)cnc23)CCN1C` (stereo not drawn) [I-N-47, 2-amino-6-chloro-N-(4-(3-(methoxymethyl)-4-methylpiperazin-1-yl)pyridin-3-yl)pyrazolo[1,5-a]pyrimidine-3-carboxamide] has a Ki of 10 to 1000 nM.
`CC1(C)CN(c2ccncc2NC(=O)c2c(N)nn3cc(F)cnc23)CCS1(=O)=O` [I-N-252, 2-amino-N-(4-(2,2-dimethyl-1,1-dioxidothiomorpholino)pyridin-3-yl)-6-fluoropyrazolo[1,5-a]pyrimidine-3-carboxamide] was tested, and the Ki was 10 to 1000 nM.
Work on `Cn1ccc(-c2ccncc2NC(=O)c2c(N)nn3cc(F)cnc23)n1` [I-C-68, 2-amino-6-fluoro-N-(4-(1-methyl-1H-pyrazol-3-yl)pyridin-3-yl)pyrazolo[1,5-a]pyrimidine-3-carboxamide] yielded a Ki of 10 to 1000 nM.
With `Cc1ncc(-c2ccncc2NC(=O)c2c(N)nn3cc(F)cnc23)n1C` [I-C-77, 2-amino-N-(4-(1,2-dimethyl-1H-imidazol-5-yl)pyridin-3-yl)-6-fluoropyrazolo[1,5-a]pyrimidine-3-carboxamide] the Ki was 10 to 1000 nM.
Work on `CS(=O)(=O)C1CCCN(c2ccncc2NC(=O)c2c(N)nn3cc(F)cnc23)C1` (stereo not drawn) [I-N-221, 2-amino-6-fluoro-N-(4-(3-(methylsulfonyl)piperidin-1-yl)pyridin-3-yl)pyrazolo[1,5-a]pyrimidine-3-carboxamide] yielded a Ki of 10 to 1000 nM.
Work on `Cn1cc(-c2ccncc2NC(=O)c2c(N)nn3cc(F)cnc23)ccc1=O` [I-C-59, 2-amino-6-fluoro-N-(1-methyl-6-oxo-1,6-dihydro-[3,4′-bipyridin]-3′-yl)pyrazolo[1,5-a]pyrimidine-3-carboxamide] yielded a Ki of 10 to 1000 nM.
Compound `Cc1nccn1-c1ccncc1NC(=O)c1c(N)nn2cc(F)cnc12` [I-N-28, 2-amino-6-fluoro-N-(4-(2-methyl-1H-imidazol-1-yl)pyridin-3-yl)pyrazolo[1,5-a]pyrimidine-3-carboxamide] has a Ki of 10 to 1000 nM.
`CCC(C#N)c1cnc2c(C(=O)Nc3cnccc3OC)c(N)nn2c1` (stereo not drawn) [I-O-20, 2-amino-6-(1-cyanopropyl)-N-(4-methoxypyridin-3-yl)pyrazolo[1,5-a]pyrimidine-3-carboxamide] showed a Ki of 10 to 1000 nM.
For `COC(=O)N1CCN(c2c(F)cncc2NC(=O)c2c(N)nn3cc(F)cnc23)CC1` [I-N-261, methyl-4-(3-(2-amino-6-fluoropyrazolo[1,5-a]pyrimidine-3-carboxamido)-5-fluoropyridin-4-yl)piperazine-1-carboxylate], the Ki was 10 to 1000 nM.
Compound `Nc1nn2cc(F)cnc2c1C(=O)Nc1cncc(F)c1N1CCC(C(=O)NCCN2CCC2)CC1` [I-G-42, 2-amino-N-(4-(4-((2-(azetidin-1-yl)ethyl)carbamoyl)piperidin-1-yl)-5-fluoropyridin-3-yl)-6-fluoropyrazolo[1,5-a]pyrimidine-3-carboxamide] has a Ki of 10 to 1000 nM.
Compound `N#CCc1cnc2c(C(=O)Nc3cnccc3N3CCCC3)c(N)nn2c1` [I-N-77, 2-amino-6-(cyanomethyl)-N-(4-(pyrrolidin-1-yl)pyridin-3-yl)pyrazolo[1,5-a]pyrimidine-3-carboxamide] has a Ki of 10 to 1000 nM.
`C[C@H]1CN(C(=O)C2CCN(c3c(F)cncc3NC(=O)c3c(N)nn4cc(F)cnc34)CC2)CCN1C` [I-G-47, (S)-2-amino-N-(4-(4-(3,4-dimethylpiperazine-1-carbonyl)piperidin-1-yl)-5-fluoropyridin-3-yl)-6-fluoropyrazolo[1,5-a]pyrimidine-3-carboxamide] gave a Ki of 10 to 1000 nM.
For `Cc1nncn1-c1ccncc1NC(=O)c1c(N)nn2cc(F)cnc12` [I-N-263, 2-amino-6-fluoro-N-(4-(3-methyl-4H-1,2,4-triazol-4-yl)pyridin-3-yl)pyrazolo[1,5-a]pyrimidine-3-carboxamide], the Ki was 10 to 1000 nM.
`CN(C)Cc1ccc(Oc2ccncc2NC(=O)c2c(N)nn3cc(F)cnc23)cn1` [I-O-3, 2-amino-N-(4-((6-((dimethylamino)methyl)pyridin-3-yl)oxy)pyridin-3-yl)-6-fluoropyrazolo[1,5-a]pyrimidine-3-carboxamide] showed a Ki of 10 to 1000 nM.
For `COCCN(C)C(=O)C1CCN(c2c(F)cncc2NC(=O)c2c(N)nn3cc(F)cnc23)CC1` [I-G-40, 2-amino-6-fluoro-N-(5-fluoro-4-(4-((2-methoxyethyl)(methyl)carbamoyl)piperidin-1-yl)pyridin-3-yl)pyrazolo[1,5-a]pyrimidine-3-carboxamide], the Ki was 10 to 1000 nM.
`COCCS(=O)(=O)C1CCN(c2ccncc2NC(=O)c2c(N)nn3cc(F)cnc23)CC1` [I-N-208, 2-amino-6-fluoro-N-(4-(4-((2-methoxyethyl)sulfonyl)piperidin-1-yl)pyridin-3-yl)pyrazolo[1,5-a]pyrimidine-3-carboxamide] gave a Ki of 10 to 1000 nM.
Compound `Nc1nn2cc(F)cnc2c1C(=O)Nc1cncc(Cl)c1N1CCC(C(=O)N2CCN3CCC2CC3)CC1` [I-G-66, N-(4-(4-(1,4-diazabicyclo[3.2.2]nonane-4-carbonyl)piperidin-1-yl)-5-chloropyridin-3-yl)-2-amino-6-fluoropyrazolo[1,5-a]pyrimidine-3-carboxamide] has a Ki of 10 to 1000 nM.
`COC(=O)[C@H]1CC[C@H](Oc2ccncc2NC(=O)c2c(N)nn3cc(F)cnc23)CC1` [I-O-13, (1r,4)-methyl 4-((3-(2-amino-6-fluoropyrazolo[1,5-a]pyrimidine-3-carboxamido)pyridin-4-yl)oxy)cyclohexanecarboxylate] showed a Ki of 10 to 1000 nM.
Work on `N#CCc1cnc2c(C(=O)Nc3cnccc3OCC(F)(F)F)c(N)nn2c1` [I-O-34, 2-amino-6-(cyanomethyl)-N-(4-(2,2,2-trifluoroethoxy)pyridin-3-yl)pyrazolo[1,5-a]pyrimidine-3-carboxamide] yielded a Ki of under 10 nM.
`CN1CCC(C(=O)N2CCN(c3c(F)cncc3NC(=O)c3c(N)nn4cc(F)cnc34)CC2)CC1` [I-N-128, 2-amino-6-fluoro-N-(5-fluoro-4-(4-(1-methylpiperidine-4-carbonyl)piperazin-1-yl)pyridin-3-yl)pyrazolo[1,5-a]pyrimidine-3-carboxamide] gave a Ki of 10 to 1000 nM.
Work on `Nc1nn2cc(F)cnc2c1C(=O)Nc1cnccc1-n1cnc(C(F)(F)F)c1` [I-N-27, 2-amino-6-fluoro-N-(4-(4-(trifluoromethyl)-1H-imidazol-1-yl)pyridin-3-yl)pyrazolo[1,5-a]pyrimidine-3-carboxamide] yielded a Ki of 10 to 1000 nM.
Compound `Nc1nn2cc(F)cnc2c1C(=O)Nc1cncc(F)c1N1CCN(C2CCOC2)CC1` (stereo not drawn) [I-N-122, 2-amino-6-fluoro-N-(5-fluoro-4-(4-(tetrahydrofuran-3-yl)piperazin-1-yl)pyridin-3-yl)pyrazolo[1,5-a]pyrimidine-3-carboxamide] has a Ki of 10 to 1000 nM.
In the case of `CN1CCN(C(=O)C2CCN(c3ccncc3NC(=O)c3c(N)nn4cc(F)cnc34)CC2)CC1` [I-G-1, 2-amino-6-fluoro-N-(4-(4-(4-methylpiperazine-1-carbonyl)piperidin-1-yl)pyridin-3-yl)pyrazolo[1,5-a]pyrimidine-3-carboxamide], the Ki is reported as 10 to 1000 nM.
Compound `CN1CCN2CCN(c3c(F)cncc3NC(=O)c3c(N)nn4cc(F)cnc34)CC2C1=O` (stereo not drawn) [I-N-240, 2-amino-6-fluoro-N-(5-fluoro-4-(8-methyl-9-oxohexahydro-1H-pyrazino[1,2-a]pyrazin-2(6H)-yl)pyridin-3-yl)pyrazolo[1,5-a]pyrimidine-3-carboxamide] has a Ki of 10 to 1000 nM.
Compound `Nc1nn2cc(Cl)cnc2c1C(=O)Nc1cnccc1N1CCC(N2CC(F)(F)C2)CC1` [I-N-108, 2-amino-6-chloro-N-(4-(4-(3,3-difluoroazetidin-1-yl)piperidin-1-yl)pyridin-3-yl)pyrazolo[1,5-a]pyrimidine-3-carboxamide] has a Ki of 10 to 1000 nM.
With `Cc1ccnnc1-c1ccncc1NC(=O)c1c(N)nn2cc(F)cnc12` [I-C-33, 2-amino-6-fluoro-N-(4-(4-methylpyridazin-3-yl)pyridin-3-yl)pyrazolo[1,5-a]pyrimidine-3-carboxamide] the Ki was 10 to 1000 nM.
`Nc1nn2cc(F)cnc2c1C(=O)Nc1cncc(Cl)c1N1CCC(C(=O)N2CCNCC2)CC1` [I-G-48, 2-amino-N-(5-chloro-4-(4-(piperazine-1-carbonyl)piperidin-1-yl)pyridin-3-yl)-6-fluoropyrazolo[1,5-a]pyrimidine-3-carboxamide] gave a Ki of 10 to 1000 nM.
`CN1CCC(C(=O)N2CCC(c3ccncc3NC(=O)c3c(N)nn4cc(F)cnc34)CC2)CC1` [I-C-16, 2-amino-6-fluoro-N-(4-(1-(1-methylpiperidine-4-carbonyl)piperidin-4-yl)pyridin-3-yl)pyrazolo[1,5-a]pyrimidine-3-carboxamide] showed a Ki of 10 to 1000 nM.
